Measurements reported in PMC11005446 (European journal of pharmaceutical sciences : official …, 2021).
Like-named read-outs stand apart in the source and are kept apart here.

Legend:
OATP1B1 and OATP1B3 [1] = assay: Inhibition of [3H]pitavastatin accumulation in human SCH; assay type: in vitro ADME; details: for Co-Incubation R / Pre+Co-Incubation R: Hepatocytes, substrate pitavastatin, R-value model; for accumulation of [3H]pitavastatin after inhibitor pre-incubation: human SCH, washing
OATP1B3 [2] = target: T1, OATP1B3 (Homo sapiens, UniProt Q9NPD5); assay: Inhibition of [3H]CCK-8 accumulation in human SCH; assay type: in vitro ADME; details: mean ± SE
T1 sequence (Q9NPD5 1-702): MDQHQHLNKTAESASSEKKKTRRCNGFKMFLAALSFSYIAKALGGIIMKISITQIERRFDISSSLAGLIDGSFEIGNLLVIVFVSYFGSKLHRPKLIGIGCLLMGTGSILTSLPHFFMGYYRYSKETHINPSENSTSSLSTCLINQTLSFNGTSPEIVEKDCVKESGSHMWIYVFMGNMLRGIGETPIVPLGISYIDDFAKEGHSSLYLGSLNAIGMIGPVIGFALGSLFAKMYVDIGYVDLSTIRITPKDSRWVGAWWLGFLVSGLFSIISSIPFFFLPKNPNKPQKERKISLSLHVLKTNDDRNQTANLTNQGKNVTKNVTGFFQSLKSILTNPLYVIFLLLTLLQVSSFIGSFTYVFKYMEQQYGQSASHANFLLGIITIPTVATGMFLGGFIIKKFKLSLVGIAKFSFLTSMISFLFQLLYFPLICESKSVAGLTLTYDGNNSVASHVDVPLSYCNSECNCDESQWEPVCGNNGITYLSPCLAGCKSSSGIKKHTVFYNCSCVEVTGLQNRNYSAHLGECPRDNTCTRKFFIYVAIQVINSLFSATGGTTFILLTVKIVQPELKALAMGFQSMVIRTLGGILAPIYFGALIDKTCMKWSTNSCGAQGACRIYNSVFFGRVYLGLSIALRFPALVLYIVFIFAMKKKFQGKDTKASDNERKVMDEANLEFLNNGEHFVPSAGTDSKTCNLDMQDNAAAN

OATP1B1 and OATP1B3 [3] = details: for Co-Incubation R / Pre+Co-Incubation R: Hepatocytes, substrate rosuvastatin, R-value model; for accumulation of [3H]rosuvastatin after inhibitor pre-incubation: washing
OATP1B1 and OATP1B3 [4] = details: both cell lines and human SCH; vs US FDA cut-off 1.1
OATP1B1 [5] = details: OATP1B1-expressing cell line, substrate E217βG; ref Pahwa et al., 2017; cited from earlier work
OATP1B3 [6] = target: T1, OATP1B3; details: OATP1B3-expressing cell line, substrate E217βG; ref Pahwa et al., 2017; cited from earlier work
[7] = Estimated maximum total plasma concentration at the inlet to the liver; details: calculated by Eq. 3 from literature parameters (Supplement Table S2)
OATP1B1 and OATP1B3 [8] = details: transporter-expressing cell lines; ref Farasyn et al., 2019; cited from earlier work
OATP1B1 [9] = details: OATP1B1-expressing cell line, substrate rosuvastatin; ref Farasyn et al., 2019; cited from earlier work
OATP1B1 [10] = details: read-out: Michaelis constant (Km) for OATP1B1, cited from earlier work
[11] = test system: cynomolgus monkey hepatocytes; details: ref Ufuk et al., 2018; cited from earlier work
OATP1B3 [12] = details: cited from earlier work
human hepatocytes = details: suspension of human hepatocytes, with vs without rifampicin; ref Bi et al., 2013; cited from earlier work
[13] = test system: OATP1B1, NTCP, and OATP1B3; details: ref Ho et al., 2006; Kitamura et al., 2008; cited from earlier work
[14] = human hepatocytes, inhibitor 100 μM co-incubation, mean ± SE

In the case of `O=C1OC(c2ccc(O)c(S(=O)(=O)O)c2)(c2ccc(O)c(S(=O)(=O)O)c2)c2c(Br)c(Br)c(Br)c(Br)c21` [BSP, bromosulfophthalein], the “accumulation of [3H]pitavastatin, co-incubation” value (OATP1B1 and OATP1B3 [1]; [14]) was 0.44 ± 0.05 fold of control, the “accumulation of [3H]CCK-8, co-incubation” value (OATP1B3 [2]; human hepatocytes, inhibitor 100 μM co-incubation) was 0.10 ± 0.01 fold of control and the “accumulation of [3H]rosuvastatin, co-incubation” value (OATP1B1 and OATP1B3 [3]; [14]) was 0.20 ± 0.09 fold of control. For the same compound, the “inhibition of rosuvastatin uptake, co-incubation” value (OATP1B1 and OATP1B3 [3]; human hepatocytes, inhibitor 100 μM co-incubation, range 77–92%) was ~ 84%.
In the case of `Cc1nc(Nc2ncc(C(=O)Nc3c(C)cccc3Cl)s2)cc(N2CCN(CCO)CC2)n1` [Dasatinib, dasatinib], the “R-values under pre+co-incubation conditions” value (OATP1B1 and OATP1B3 [4]) is listed as > 1.1, the “Co-Incubation R” value (OATP1B1 [5]) is listed as 1.07 (1.04–1.09) and the “Pre+Co-Incubation R” value (OATP1B1 [5]) is listed as 1.13 (1.09–1.20). For the same compound, the “Co-Incubation R” value (OATP1B3 [6]) was 1.05 (1.05–1.09), the “Pre+Co-Incubation R” value (OATP1B3 [6]) was 1.11 (1.09–1.22) and the “Co-Incubation R” value (OATP1B1 and OATP1B3 [3]) was 1.09 (1.05–1.14). For the same compound, the “Pre+Co-Incubation R” value (OATP1B1 and OATP1B3 [3]) was 1.27 (1.15–1.51).
With `CO[C@H]1C[C@@H]2CC[C@@H](C)[C@@](O)(O2)C(=O)C(=O)N2CCCC[C@H]2C(=O)O[C@H]([C@H](C)C[C@@H]2CC[C@@H](OCCO)[C@H](OC)C2)CC(=O)[C@H](C)/C=C(\C)[C@@H](O)[C@@H](OC)C(=O)[C@H](C)C[C@H](C)/C=C/C=C/C=C/1C` [EVR, everolimus] the “Co-Incubation R” value (OATP1B1 and OATP1B3 [1]) was 1.01 (1.01–1.02), the “Pre+Co-Incubation R” value (OATP1B1 and OATP1B3 [1]) was 1.09 (1.08–1.13) and the “accumulation of [3H]pitavastatin after inhibitor pre-incubation” value (OATP1B1 and OATP1B3 [1]; 1 h pre-incubation at 0.5 μM, model estimate ± SE) was 0.78±0.06 fold vs. CTL. For the same compound, the “maximum total plasma concentration at the inlet to the liver (Iin,max,plasma)” value [7] was 0.17 µM, the “R values from cell lines, pre+co-incubation” value (OATP1B1 and OATP1B3 [8]) was 1.23 and the “Pre+Co-Incubation R” value (OATP1B1 and OATP1B3 [3]) was 1.07 (1.05–1.11). For the same compound, the “accumulation of [3H]rosuvastatin after inhibitor pre-incubation” value (OATP1B1 and OATP1B3 [3]; human SCH, 1 h pre-incubation at 0.2 μM, model estimate ± SE) was 0.8 ± 0.07 fold of CTL and the “accumulation of [3H]rosuvastatin after inhibitor pre-incubation” value (OATP1B1 and OATP1B3 [3]; human SCH, 1 h pre-incubation at 0.8 μM, model estimate ± SE) was 0.59 ± 0.07 fold of CTL.
With `CO[C@H]1C[C@@H]2CC[C@@H](C)[C@@](O)(O2)C(=O)C(=O)N2CCCC[C@H]2C(=O)O[C@H]([C@H](C)C[C@@H]2CC[C@@H](O)[C@H](OC)C2)CC(=O)[C@H](C)/C=C(\C)[C@@H](O)[C@@H](OC)C(=O)[C@H](C)C[C@H](C)/C=C/C=C/C=C/1C` [SIR, sirolimus] the “Co-Incubation R” value (OATP1B1 and OATP1B3 [1]) was 1.00 (1.00–1.01), the “Pre+Co-Incubation R” value (OATP1B1 and OATP1B3 [1]) was 1.00 (1.00–1.01) and the “accumulation of [3H]pitavastatin after inhibitor pre-incubation” value (OATP1B1 and OATP1B3 [1]; 1 h pre-incubation at 0.6 μM) was “did not affect”. For the same compound, the “maximum total plasma concentration at the inlet to the liver (Iin,max,plasma)” value [7] was 0.03 µM, the “R-values under pre+co-incubation conditions” value (OATP1B1 and OATP1B3 [4]) was < 1.1 and the “Co-Incubation R” value (OATP1B1 [9]) was 1.00 (1.00–1.03). For the same compound, the “Co-Incubation R” value (OATP1B1 and OATP1B3 [3]) was 1.00 (1.00–1.00), the “Pre+Co-Incubation R” value (OATP1B1 and OATP1B3 [3]) was 1.00 (1.00–1.00) and the “accumulation of [3H]rosuvastatin after inhibitor pre-incubation” value (OATP1B1 and OATP1B3 [3]; human SCH, 1 h pre-incubation at 0.6 μM) was 0.63 ± 0.08 fold vs. CTL.
In the case of `O=C(O)C[C@H](O)C[C@H](O)/C=C/c1c(C2CC2)nc2ccccc2c1-c1ccc(F)cc1` [pitavastatin], the Km (OATP1B1 [10]; ref Hirano et al., 2004) is given as 3 µM, the “uptake clearance attributed to passive diffusion” value [11] is given as 20% and the Km (OATP1B3 [12]; read-out: Michaelis constant (Km) for OATP1B3, ref Hirano et al., 2004) is given as 3 µM.
In the case of `CO[C@H]1/C=C/O[C@@]2(C)Oc3c(C)c(O)c4c(O)c(c(/C=N/N5CCN(C)CC5)c(O)c4c3C2=O)NC(=O)/C(C)=C\C=C\[C@H](C)[C@H](O)[C@@H](C)[C@@H](O)[C@@H](C)[C@H](OC(C)=O)[C@@H]1C` [rifampicin], the “accumulation of [3H]CCK-8, pre+co-incubation” value (OATP1B3 [2]; human SCH, inhibitor 50 μM, 1 h pre-incubation then co-incubation) was 0.18 ±0.12 fold of control and the “accumulation of [3H]rosuvastatin, pre+co-incubation” value (OATP1B1 and OATP1B3 [3]; human SCH, inhibitor 50 μM, 1 h pre-incubation then co-incubation, mean ± SE) was 0.45 ± 0.15 fold of control.
In the case of `CC(C)c1nc(N(C)S(C)(=O)=O)nc(-c2ccc(F)cc2)c1/C=C/[C@@H](O)C[C@@H](O)CC(=O)O` [rosuvastatin], the Km (OATP1B1 [10]; ref Kitamura et al., 2008) is listed as 0.8 µM, the “share of total hepatic uptake clearance due to active transport processes” value (human hepatocytes) is listed as “approximately 90%” and the “uptake clearance attributed to passive diffusion” value [11] is listed as 4%. The “contribution of NTCP to active uptake into human hepatocytes” value [13] was ~35%, the “contribution of OATP1B1 to active uptake into human hepatocytes” value [13] was ~ 50% and the “contribution of OATP1B3 to active uptake into human hepatocytes” value [13] was ~15%. For the same compound, the Km (OATP1B3 [12]; read-out: Michaelis constant (Km) for OATP1B3, ref Kitamura et al., 2008) was 14.2 µM.
In the case of cholecystokinin 8 [CCK-8], the Km (OATP1B3 [12]) is given as 3.8 µM.
